Measurements from PubChem BioAssay AID330 (DTP/NCI, 2004).
“And” between values parts separate entries of the source, which are not always exact repeats. Equal entries are not always repeated. Toxic doses and inconclusive results are not listed. How the source made its calls: active means survival T/C of 150% or more; inactive means T/C below 125% in these data.

System: P388 leukemia ip, CD2F1 mice, survival T/C
Assay: NCI In Vivo Anticancer Drug Screen. Data for tumor model P388 Leukemia (intraperitoneal) in CD2F1 (CDF1) mice
Conditions: endpoint: median survival time, higher = longer survival
In short: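 Mice carrying the transplanted tumor received test compound or vehicle. Survival was recorded in each group, and the value is the treated-group measurement divided by that of the vehicle-treated control group.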

[1] = dose: 50.0 mg/kg/injection, schedule: Q01DX009 (ip), vehicle: Klucel (hydroxypropylcellulose) (HPC)
[2] = dose: 100.0 mg/kg/injection, schedule: Q01DX009 (ip), vehicle: Klucel (hydroxypropylcellulose) (HPC)
[3] = dose: 200.0 mg/kg/injection, schedule: Q01DX009 (ip), vehicle: Klucel (hydroxypropylcellulose) (HPC)
[4] = dose: 100.0 mg/kg/injection, schedule: Q01DX009 (ip), vehicle: saline with Tween-80
[5] = dose: 100.0 mg/kg/injection, schedule: Q04DX003 (ip), vehicle: saline with Tween-80
[6] = dose: 200.0 mg/kg/injection, schedule: Q04DX003 (ip), vehicle: saline with Tween-80
[7] = dose: 400.0 mg/kg/injection, schedule: Q04DX003 (ip), vehicle: saline with Tween-80
[8] = dose: 25.0 mg/kg/injection, schedule: Q01DX009 (ip), vehicle: saline with Tween-80
[9] = dose: 50.0 mg/kg/injection, schedule: Q01DX009 (ip), vehicle: saline with Tween-80
[10] = dose: 60.0 mg/kg/injection, schedule: Q01DX005 (ip), vehicle: saline with Tween-80
[11] = dose: 120.0 mg/kg/injection, schedule: Q01DX005 (ip), vehicle: saline with Tween-80
[12] = dose: 240.0 mg/kg/injection, schedule: Q01DX005 (ip), vehicle: saline with Tween-80
[13] = dose: 15.0 mg/kg/injection, schedule: Q01DX005 (ip), vehicle: saline with Tween-80
[14] = dose: 30.0 mg/kg/injection, schedule: Q01DX005 (ip), vehicle: saline with Tween-80
[15] = dose: 50.0 mg/kg/injection, schedule: Q01DX009 (ip), vehicle: suspension in saline
[16] = dose: 100.0 mg/kg/injection, schedule: Q01DX009 (ip), vehicle: suspension in saline
[17] = dose: 200.0 mg/kg/injection, schedule: Q01DX009 (ip), vehicle: suspension in saline

Measured: T/C

CC(C)S(=O)(=O)c1ccc(Cl)cc1[N+](=O)[O-]
inactive: [1] 100 % of control | [2] 99 % of control | [3] 99 % of control

O=C(O)/C=C/C(=O)NCc1ccco1
inactive: [4] 100 % of control | [5] 90 % of control | dose: 200.0 mg/kg/injection, schedule: Q01DX009 (ip), vehicle: saline with Tween-80 109 % of control | [6] 95 % of control | dose: 400.0 mg/kg/injection, schedule: Q01DX009 (ip), vehicle: saline with Tween-80 100 % of control | [7] 100 % of control

CCCCCCCC1SC(=S)NC1=O (configuration not stated)
inactive: dose: 6.25 mg/kg/injection, schedule: Q04DX003 (ip), vehicle: other 109 % of control | dose: 12.5 mg/kg/injection, schedule: Q04DX003 (ip), vehicle: other 101 % of control | dose: 25.0 mg/kg/injection, schedule: Q04DX003 (ip), vehicle: other 108 % of control | dose: 50.0 mg/kg/injection, schedule: Q04DX003 (ip), vehicle: other 108 % of control | dose: 100.0 mg/kg/injection, schedule: Q04DX003 (ip), vehicle: other 101 % of control

C=C(C#N)COc1ccc(Cl)cc1C
inactive: dose: 12.5 mg/kg/injection, schedule: Q01DX009 (ip), vehicle: Klucel (hydroxypropylcellulose) (HPC) 101 % of control | dose: 25.0 mg/kg/injection, schedule: Q01DX009 (ip), vehicle: Klucel (hydroxypropylcellulose) (HPC) 98 % of control | [1] 104 % of control and 95 % of control

CCCC(C#N)(CCCl)c1ccccc1 (configuration not stated)
inactive: [5] 100 % of control | [6] 104 % of control | [7] 95 % of control

S=C(S)N1CCCNCC1 (tested in a mixture with another compound)
inactive: dose: 12.5 mg/kg/injection, schedule: Q01DX009 (ip), vehicle: saline with Tween-80 101 % of control and 89 % of control | [8] 92 % of control and 97 % of control | [9] 86 % of control and 97 % of control

Cc1sc(N=Nc2ccc(N(C)C)cc2)[n+]([O-])c1C
inactive: [1] 111 % of control | [2] 102 % of control | [3] 104 % of control

O=C(O)c1cc(Nc2nc(Cl)nc(Cl)n2)ccc1-c1c2ccc(=O)cc-2oc2cc(O)ccc12
inactive: [10] 115 % of control | [11] 119 % of control | [12] 117 % of control

CN1CCc2cc3c(cc2C(=O)Cc2ccc4c(c2CO1)OCO4)OCO3
inactive: dose: 2.75 mg/kg/injection, schedule: Q01DX005 (ip), vehicle: Klucel (hydroxypropylcellulose) (HPC) 99 % of control | dose: 5.5 mg/kg/injection, schedule: Q01DX005 (ip), vehicle: Klucel (hydroxypropylcellulose) (HPC) 94 % of control | dose: 11.0 mg/kg/injection, schedule: Q01DX005 (ip), vehicle: Klucel (hydroxypropylcellulose) (HPC) 96 % of control | dose: 22.0 mg/kg/injection, schedule: Q01DX005 (ip), vehicle: Klucel (hydroxypropylcellulose) (HPC) 99 % of control

O=P(OC1=CCCCC1)(c1ccccc1)c1ccccc1
inactive: [10] 99 % of control | [11] 100 % of control | [12] 97 % of control

COc1ccc(O)c(CN2CCN(Cc3cc(OC)ccc3O)CC2)c1
inactive: [13] 91 % of control | [14] 86 % of control

Cc1cc[n+]2cc(-c3ccc(/C=N/N=C(N)N)cc3)n(C)c2c1
inactive: dose: 1.56 mg/kg/injection, schedule: Q01DX005 (ip), vehicle: Klucel (hydroxypropylcellulose) (HPC) 100 % of control | dose: 3.12 mg/kg/injection, schedule: Q01DX005 (ip), vehicle: Klucel (hydroxypropylcellulose) (HPC) 103 % of control | dose: 6.25 mg/kg/injection, schedule: Q01DX005 (ip), vehicle: Klucel (hydroxypropylcellulose) (HPC) 102 % of control and 107 % of control

CCOP(OCC)SSCn1nc2ccc3ccccc3n2c1=O
inactive: [13] 98 % of control | [14] 97 % of control | [10] 103 % of control

COC(=O)c1ccccc1OC(C)=O
inactive: dose: 25.0 mg/kg/injection, schedule: Q01DX009 (ip), vehicle: suspension in saline 99 % of control | [15] 99 % of control | [16] 96 % of control | [17] 100 % of control

C=C1C(=O)OC2CC(C)C3C=CC(=O)C3CC12 (configuration not stated)
inactive: dose: 0.15 mg/kg/injection, schedule: Q01DX009 (ip), vehicle: Klucel (hydroxypropylcellulose) (HPC) 98 % of control | dose: 0.3 mg/kg/injection, schedule: Q01DX009 (ip), vehicle: Klucel (hydroxypropylcellulose) (HPC) 100 % of control | dose: 0.6 mg/kg/injection, schedule: Q01DX009 (ip), vehicle: Klucel (hydroxypropylcellulose) (HPC) 99 % of control and 103 % of control | dose: 2.34 mg/kg/injection, schedule: Q01DX009 (ip), vehicle: Klucel (hydroxypropylcellulose) (HPC) 102 % of control | dose: 2.4 mg/kg/injection, schedule: Q01DX009 (ip), vehicle: Klucel (hydroxypropylcellulose) (HPC) 104 % of control

N#Cc1ccc(NN=O)cc1
inactive: dose: 3.12 mg/kg/injection, schedule: Q01DX009 (ip), vehicle: water 100 % of control | dose: 6.25 mg/kg/injection, schedule: Q01DX009 (ip), vehicle: water 105 % of control | dose: 12.5 mg/kg/injection, schedule: Q01DX009 (ip), vehicle: water 105 % of control | dose: 25.0 mg/kg/injection, schedule: Q01DX009 (ip), vehicle: water 117 % of control | dose: 100.0 mg/kg/injection, schedule: Q01DX009 (ip), vehicle: water 117 % of control

c1ccc(SCCC(Sc2ccccc2)Sc2ccccc2)cc1
inactive: dose: 50.0 mg/kg/injection, schedule: Q01DX009 (ip), vehicle: saline 100 % of control | dose: 100.0 mg/kg/injection, schedule: Q01DX009 (ip), vehicle: saline 106 % of control | dose: 200.0 mg/kg/injection, schedule: Q01DX009 (ip), vehicle: saline 106 % of control

Cc1ccc2c(c1Oc1ccc(S(N)(=O)=O)cc1)C(=O)c1ccccc1C2=O
inactive: [5] 100 % of control | [6] 100 % of control | [7] 95 % of control

COc1cccc2c1C(=O)c1c(O)c3c(c(O)c1C2=N)C[C@@](O)(C(C)=O)CC3OC1CC(N(Cc2ccccc2)Cc2ccccc2)C(O)C(C)O1 (some centres not stated)
inactive: dose: 12.5 mg/kg/injection, schedule: Q04DX003 (ip), vehicle: saline with Tween-80 102 % of control | dose: 25.0 mg/kg/injection, schedule: Q04DX003 (ip), vehicle: saline with Tween-80 98 % of control | dose: 50.0 mg/kg/injection, schedule: Q04DX003 (ip), vehicle: saline with Tween-80 102 % of control and 123 % of control | [5] 111 % of control and 122 % of control | [6] 124 % of control | [7] 106 % of control

Cc1ccc(S(=O)(=O)NC(=O)OC23COCN2COC3)cc1
inactive: [9] 117 % of control | [4] 122 % of control

CC1C2c3ccccc3C(c3ccccc32)C1C(=O)O (configuration not stated)
inactive: dose: 50.0 mg/kg/injection, schedule: Q01DX005 (ip), vehicle: saline with Tween-80 98 % of control | dose: 100.0 mg/kg/injection, schedule: Q01DX005 (ip), vehicle: saline with Tween-80 100 % of control | dose: 200.0 mg/kg/injection, schedule: Q01DX005 (ip), vehicle: saline with Tween-80 107 % of control

CC/C(=N/NS(=O)(=O)c1ccc(C)cc1)c1ccc(O)cc1
inactive: dose: 100.0 mg/kg/injection, schedule: Q04DX003 (ip), vehicle: saline 107 % of control | dose: 200.0 mg/kg/injection, schedule: Q04DX003 (ip), vehicle: saline 100 % of control | dose: 400.0 mg/kg/injection, schedule: Q04DX003 (ip), vehicle: saline 98 % of control

[I][Ga]([I])[I]
inactive: [8] 116 % of control | [9] 111 % of control | [4] 100 % of control | dose: 100.0 mg/kg/injection, schedule: Q04DX003 (ip), vehicle: saline sonified 100 % of control

C=C1C(=O)OC2/C=C(/CO)C3(O)CC(O)C(C)(CC(OC(=O)/C(C)=C/C)C12)O3 (configuration not stated)
inactive: dose: 10.0 mg/kg/injection, schedule: Q01DX009 (ip), vehicle: saline with Tween-80 114 % of control and 117 % of control | dose: 20.0 mg/kg/injection, schedule: Q01DX009 (ip), vehicle: saline with Tween-80 124 % of control

O=C1CCSC(=S)N1c1ccc2c(c1)OCO2
inactive: [15] 105 % of control | [16] 90 % of control | [17] 98 % of control
